Data: patent publication US20090227540A1, “TREATMENT OF WOOD BASED ON NOVEL FORMULATIONS OF BORATRANES” (priority 2005, published 2009)
Where two headings read alike, the source gives them in different places.

Legend:
P. tephropora = conditions: Humphrey et al; cited from earlier work
G. abietinum = conditions: Humphrey et al; cited from earlier work
Tyromyces palustris [1] = assay: decay of treated, leached radiata pine blocks (AWPA protocol); type: cell-based
Protocol: (§1) A more rigorous examination of the potential synergism of was carried out on leached wood blocks. Radiata pine blocks were cut to size (20×20×20 mm) and labeled according to treatment level. The blocks were then vacuum impregnated at
(§2) −95 kpa with the various treatments as specified in table 16. The aqueous or alcoholic carrier solvents were then allowed to air dry for a period of 5 days. The blocks were then subjected to leaching and biological attack in accordance with the AWPA's “Proctocols for assessment of Wood Preservatives.” The fungal species used were Tyromyces palustris, Coniophora puteana and Fomitopsis lilacino-gilva.
(§3) inhibition of growth by fungicide B at retention q. E is the expected additive inhibition of the two fungicides. If a greater inhibition occurs with the combined treatment than the two fungicides acting alone synergism is defined to be present.

[2] = tested on: Fomitopsis lilacino-gilva; assay: as above; type: cell-based
Protocol: as §1, §2, §3

Coniophora puteana = assay: as above; type: cell-based
Protocol: as §1, §2, §3

Tyromyces palustris [3] = assay: malt agar plate growth inhibition, end point/MIC and Kull synergy; type: cell-based
Protocol: (§4) To this end an alcoholic aqueous solutions of decyl boratrane and didecyldimethyl ammonium chloride were prepared separately and in combination in a ratio of 3:1 Serial dilutions of the formulations of the respective fungicides and fungicide mixture were added to 3 replicate plates of malt agar under aseptic conditions. Three replicate control plates without fungicide were similarly prepared.
(§5) Onto each plate was placed 6 fungal inoculum squares measuring approximately 5×5 mm. […] The plates were then rated for growth inhibition and the results recorded.
(§6) The absence or presence of synergism may be calculated by the method of F. C. Kull et al., Applied Microbiology, Vol 9, (1961) p 538 et seq. The synergistic index (S.I.) is calculated according to the following formula.
(§7) In the present context the parameters in the formula have the following meaning:
(§8) Qa=The concentration of compound decyl isopropanolamine boratrane (compound A) in mixture which produces and end point. Qb=The concentration of compound didecyldimethyl ammonium chloride (compound B) in mixture which produces and end point. QA=The concentration of compound decyl isopropanolamine boratrane (compound A) alone which produces and end point. QB=The concentration of compound didecyldimethyl ammonium chloride (compound B) alone which produces and end point. QC=The concentration of the mixture of didecyldimethyl ammonium chloride and decyl isopropanolamine boratrane (compounds A+B) which together produces and end point.
(§9) If the synergistic index is above 1, this means that antagonism is present. If the synergistic index equals 1, this means that an additive effect of the two biocides exist. If the synergistic index is less than 1, this means that synergism of the two biocides exist.
(§10) To this end an alcoholic aqueous solution of decyl boratrane and didecyldimethyl ammonium chloride was formulated in a ratio of 3:1. In a separate formulation a micro-emulsion of triadimefon was prepared. Serial dilutions of the formulations of the respective fungicides were added to 3 replicate plates of malt agar under aseptic conditions and tested for synergism under the same conditions as example 7 at ratios of 10:1 and 20:1 boratrane didecyldimethyl ammonium chloride mixture to 1 of triadimefon.
(§11) The synergy experiment in Example 8 was repeated at two additional ratios of 5:1 and 50:1. The results are sumarised in tables 14 and 15.

Antroda xantha = assay: as above; type: cell-based
Protocol: as §4, §5, §6, §7, §8, §9, §10, §11

[4] = tested on: Fomitopsis lilacino-gilva; assay: as above; type: cell-based
Protocol: as §4, §5, §6, §7, §8, §9, §10, §11

Trametes versicolor = assay: as above; type: cell-based
Protocol: as §4, §5, §6, §7, §8, §9, §10, §11

Pycnoporus coccineus = assay: as above; type: cell-based
Protocol: as §4, §5, §6, §7, §8, §9, §10, §11

[5] = cited from earlier work
[6] = Ex 7, Table 5 prints no unit (ppm in Tables 1-4)
[7] = Ex 8, A=DIPB DDAC 3:1, B=triadimefon
[8] = Ex 9 repeat, A=DIPB DDAC 3:1, B=triadimefon

Which “inhibition of the fungi” value (P. tephropora) does the source give for `CCCC[N+](CCCC)(CCCC)CCCC.c1ccc2c(c1)CO[B-]1(OCc3ccccc3O1)O2` here?
The value was “complete inhibition”.

What about the “inhibition of the fungi” value (G. abietinum) of the same compound?
Its value is “complete inhibition”.

Which results are given for `OB(O)O` [Boric acid]?
Mass loss % (Tyromyces palustris [1]; retention Boric acid 0.4% w): 23.66%; Mass loss % (Tyromyces palustris [1]; retention Boric acid 0.8% w): 24.67%; Mass loss % ([2]; retention Boric acid 0.4% w): 32.91%; Mass loss % ([2]; retention Boric acid 0.8% w): 30.6%; Mass loss % (Coniophora puteana; retention Boric acid 0.4% w): 47.37%; Mass loss % (Coniophora puteana; retention Boric acid 0.8% w): 43.4%

Which MIC (Tyromyces palustris [3]) does the source give for `CCCCCCCCCC[N+](C)(C)CCCCCCCCCC.[Cl-]` [DDAC, didecyldimethyl ammonium chloride] here?
Its MIC is 1020 mg/L.

And the “QB end point concentration, B alone” value (Tyromyces palustris [3]; Ex 7, A=DIPB, B=DDAC)?
The value was 1024.

What about the MIC (Antroda xantha) of the same compound?
Its MIC is 256 mg/L.

And the “QB end point concentration, B alone” value (Antroda xantha; Ex 7, A=DIPB, B=DDAC)?
Its value is 256.

What about the MIC [4] of the same compound?
The MIC was 256 mg/L.

What about the “QB end point concentration, B alone” value ([4]; Ex 7, A=DIPB, B=DDAC) of the same compound?
Its value is 256.

What about the “QB end point concentration, B alone” value (Trametes versicolor; Ex 7, A=DIPB, B=DDAC) of the same compound?
The value was 2048.

And the MIC (Trametes versicolor; Trametes versicolor)?
The MIC was over 1020 mg/L.

What about the “QB end point concentration, B alone” value (Pycnoporus coccineus; Ex 7, A=DIPB, B=DDAC) of the same compound?
The value was 2048.

What about the MIC (Pycnoporus coccineus; [6]) of the same compound?
Its MIC is 2048.

With `CCCCCCCCCCC1C[N+]23CC(C)O[B-]2(OC(C)C3)O1` (stereo not drawn) [DIPB, 3,7-dimethyl-10-decyl-2,8,9-trioxa-5-aza-1-boratricyclo-[3.3.3.0]-undecane] as the compound, how does the MIC (Tyromyces palustris [3]; Ex 7) read?
The MIC was 1024 ppm.

What about the “QA end point concentration, A alone” value (Tyromyces palustris [3]; Ex 7, A=DIPB, B=DDAC) of the same compound?
Its value is 1024.

And the MIC (Antroda xantha; Ex 7)?
Its MIC is 256 ppm.

And the “QA end point concentration, A alone” value (Antroda xantha; Ex 7, A=DIPB, B=DDAC)?
Its value is 256.

What about the MIC ([4]; Ex 7) of the same compound?
The MIC was 2048 ppm.

What about the “QA end point concentration, A alone” value ([4]; Ex 7, A=DIPB, B=DDAC) of the same compound?
Its value is 2048.

What about the MIC (Trametes versicolor; Ex 7) of the same compound?
Its MIC is 256 ppm.

And the “QA end point concentration, A alone” value (Trametes versicolor; Ex 7, A=DIPB, B=DDAC)?
Its value is 2048.

What about the “QA end point concentration, A alone” value (Pycnoporus coccineus; Ex 7, A=DIPB, B=DDAC) of the same compound?
Its value is 256.

And the MIC (Pycnoporus coccineus; [6])?
The MIC was 2048.

What about the Mass loss % (Tyromyces palustris [1]; retention 0.1% w b.a.e.) of the same compound?
Its Mass loss % is 22.55%.

What about the Mass loss % (Tyromyces palustris [1]; retention 0.2% w b.a.e.) of the same compound?
Its Mass loss % is 26.55%.

What about the Mass loss % (Tyromyces palustris [1]; retention 0.4% w b.a.e) of the same compound?
Its Mass loss % is 21.33%.

And the Mass loss % (Tyromyces palustris [1]; retention 0.8% w b.a.e)?
Its Mass loss % is 0.86%.

What about the Mass loss % ([2]; retention 0.1% w b.a.e.) of the same compound?
The Mass loss % was 32.95%.

And the Mass loss % ([2]; retention 0.2% w b.a.e.)?
Its Mass loss % is 34.58%.

And the Mass loss % ([2]; retention 0.4% w b.a.e)?
The Mass loss % was 10.09%.

And the Mass loss % ([2]; retention 0.8% w b.a.e)?
Its Mass loss % is 0.29%.

What about the Mass loss % (Coniophora puteana; retention 0.1% w b.a.e.) of the same compound?
Its Mass loss % is 56.25%.

What about the Mass loss % (Coniophora puteana; retention 0.2% w b.a.e.) of the same compound?
Its Mass loss % is 47.62%.

What about the Mass loss % (Coniophora puteana; retention 0.4% w b.a.e) of the same compound?
Its Mass loss % is 27.93%.

What about the Mass loss % (Coniophora puteana; retention 0.8% w b.a.e) of the same compound?
The Mass loss % was 4.64%.

What about the “rate of boron leaching” value ([5]; analysis of the lap joints each year) of the same compound?
The value was “significantly lower than boric acid”.

What about the “efficacy compared to boric acid” value ([5]; weather exposed lap joints) of the same compound?
Its value is “superior efficacy”.

Which “QB end point concentration, B alone” value (Tyromyces palustris [3]; [7]) does the source give for `CC(C)(C)C(=O)C(Oc1ccc(Cl)cc1)n1cncn1` (stereo not drawn) [Triadimefon] here?
The value was 32.

What about the MIC (Tyromyces palustris [3]; Ex 8, read-out: MIC) of the same compound?
Its MIC is 32 mg/L.

And the “QB end point concentration, B alone” value (Tyromyces palustris [3]; [8])?
Its value is 16.

What about the “QB end point concentration, B alone” value (Antroda xantha; [7]) of the same compound?
The value was 4.

And the MIC (Antroda xantha; Ex 8, read-out: MIC)?
The MIC was 4 mg/L.

What about the “QB end point concentration, B alone” value (Antroda xantha; [8]) of the same compound?
The value was 4.

And the “QB end point concentration, B alone” value [4, 7]?
Its value is 4.

And the MIC ([4]; Ex 8, read-out: MIC)?
Its MIC is 4 mg/L.

And the “QB end point concentration, B alone” value [4, 8]?
The value was 8.

What about the “QB end point concentration, B alone” value (Trametes versicolor; [7]) of the same compound?
The value was 4.

What about the “QB end point concentration, B alone” value (Trametes versicolor; [8]) of the same compound?
Its value is 4.

What about the MIC (Trametes versicolor; Trametes versicolor, Ex 8, read-out: MIC) of the same compound?
Its MIC is 128 mg/L.

What about the “QB end point concentration, B alone” value (Pycnoporus coccineus; [7]) of the same compound?
The value was 128.

What about the “QB end point concentration, B alone” value (Pycnoporus coccineus; [8]) of the same compound?
The value was 0.5.

What about the MIC (Pycnoporus coccineus; Trametes coccinea, Ex 8, read-out: MIC) of the same compound?
Its MIC is 4 mg/L.

Which Mass loss % (Tyromyces palustris [1]; retention ADBAC 0.16% w) does the source give for “alkyldimethyl benzyl ammonium chloride [Benzalkonium Chloride 50%]” here?
The Mass loss % was 21.68%.

And the Mass loss % (Tyromyces palustris [1]; retention ADBAC 0.33% w)?
The Mass loss % was 25.03%.

What about the Mass loss % (Tyromyces palustris [1]; retention ADBAC 0.66% w) of the same compound?
Its Mass loss % is 23.72%.

And the Mass loss % (Tyromyces palustris [1]; retention ADBAC 1.33% w)?
Its Mass loss % is 12.61%.

What about the Mass loss % ([2]; retention ADBAC 0.16% w) of the same compound?
Its Mass loss % is 30.66%.

And the Mass loss % ([2]; retention ADBAC 0.33% w)?
Its Mass loss % is 29.44%.

And the Mass loss % ([2]; retention ADBAC 0.66% w)?
The Mass loss % was 27.92%.

What about the Mass loss % ([2]; retention ADBAC 1.33% w) of the same compound?
The Mass loss % was 4.27%.

What about the Mass loss % (Coniophora puteana; retention ADBAC 0.16% w) of the same compound?
Its Mass loss % is 60.59%.

And the Mass loss % (Coniophora puteana; retention ADBAC 0.33% w)?
Its Mass loss % is 48.9%.

What about the Mass loss % (Coniophora puteana; retention ADBAC 0.66% w) of the same compound?
Its Mass loss % is 39.16%.

What about the Mass loss % (Coniophora puteana; retention ADBAC 1.33% w) of the same compound?
The Mass loss % was 17.72%.
